Source: patent US20250302740A1, “A CONTROLLED RELEASE, ANTIMICROBIAL GEL FOR THE TREATMENT OF VAGINAL INFECTIONS” (priority 2022, published 2025)
Where two headings read alike, the source gives them in different places.

Key:
[1] = test system: Gardnerella vaginalis biofilm; settings: cited from earlier work
Gardnerella vaginalis = test: MIC and MBC against Gardnerella vaginalis; assay type: cell-based
Experimental: (§1) A study was carried out to determine the effectiveness of thymol and carvacrol, singly or in combination, against bacterial vaginosis, trichomoniasis, candidiasis and lactobacilli relative to metronidazole, clotrimazole and clindamycin.
(§2) The results are shown in Table 2, wherein minimum inhibitory concentration (MIC) and minimum bactericidal (or fungicidal) concentration (MBC or MFC) are shown: […]

Lactobacillus = test: MIC and MBC against Lactobacillus; assay type: cell-based
Experimental: as §1, §2

Candida albicans = test: MIC and MFC against Candida albicans; assay type: cell-based
Experimental: as §1, §2

[2] = test system: Gardnerella vaginalis biofilm; settings: cited from earlier work; for Mature biofilm inhibition: Gardnerella mature biofilm; for Native biofilm inhibition: Gardnerella native biofilm
G. vaginalis = settings: cited from earlier work
C. albicans biofilms = settings: cited from earlier work
[3] = test system: Lactobacillus acidophilus; test: Inhibition of Lactobacillus acidophilus across thymol concentration range; assay type: cell-based; settings: steady rate across the concentration range
From the text: Lactobacillus acidophilus, with a steady rate of <10% inhibition of Lactobacillus acidophilus across the concentration range, compared to inhibition range of 10% to 100% across the same concentration range.

Cc1ncc([N+](=O)[O-])n1CCO [Metronidazole, reference compound]
Prevention of biofilm formation ([1]; Gardnerella vaginalis): only able to prevent biofilm formation
Inhibition or killing of mature biofilm ([1]; mature biofilm of Gardnerella vaginalis): unable to inhibit or kill
MIC (Gardnerella vaginalis; read-out: MIC): 64 µg/mL
MIC (Lactobacillus; read-out: MIC): ≥ 1000 µg/mL

Cc1ccc(C(C)C)cc1O [Carvacrol]
MFC (Candida albicans): 1250 µg/mL
MIC (Candida albicans): 625 µg/mL
MBC (Gardnerella vaginalis): 156 µg/mL
MIC (Gardnerella vaginalis): 156 µg/mL
MBC (Lactobacillus): 2440 µg/mL
MIC (Lactobacillus): 2440 µg/mL

CCC[C@@H]1C[C@@H](C(=O)N[C@@H]([C@H]2O[C@H](SC)[C@H](O)[C@@H](O)[C@H]2O)[C@H](C)Cl)N(C)C1 [Clindamycin, reference compound]
MBC (Gardnerella vaginalis; read-out: MBC): 8 µg/mL
MIC (Gardnerella vaginalis; read-out: MIC): 4 µg/mL
MIC (Lactobacillus; read-out: MIC): 1000 µg/mL

Clc1ccccc1C(c1ccccc1)(c1ccccc1)n1ccnc1 [Clotrimazole, reference compound]
MFC (Candida albicans; read-out: MFC): ≥ 2000 µg/mL
MIC (Candida albicans; read-out: MIC): 1000 µg/mL

Cc1ccc(C(C)C)c(O)c1 [Thymol]
Mature biofilm inhibition ([2]; 1/4 MIC): 13.20%
Mature biofilm inhibition ([2]; 1 MIC): 26.18%
Native biofilm inhibition ([2]; 1/8 MIC): 11.39%
Native biofilm inhibition ([2]; 1 MIC): 32.77%
MFC (Candida albicans; read-out: MFC): 2500 µg/mL
MIC (Candida albicans; read-out: MIC): 125 µg/mL
MBC (Gardnerella vaginalis; read-out: MBC): 250 µg/mL
MIC (Gardnerella vaginalis; read-out: MIC): 175 µg/mL
Adhesion of G. vaginalis to human vaginal cells (G. vaginalis): interfere with the adhesion
Destruction of mature biofilms (C. albicans biofilms; C. albicans mature biofilms): considerable effect
Reduction in biofilms formed (C. albicans biofilms; C. albicans, 0.5xMIC, P<0.05): significant reduction
Inhibition of Lactobacillus acidophilus [3]: < 10%
